Results on 4 molecules are retold here after patent publication US6797285B1, “Leaves of Cajanus Cajan(L.) Millsp and extract, formulation and uses thereof” (priority 1999, dated 2004).

Test [1] concerns mouse pain induced by acetic acid. Put plainly: writhing response on mouse (acetic acid). It counts as in vivo, NIH mice. The settings on record: 0.013 g/kg/day, gavage 7 days. The protocol: Divided the mice into 5 groups randomly, i.e. control group (0.2 ml/10 g distilled water), indometacin-treated group (0.013 g/kg) and three Shengmaichenggu capsule-treated groups (dosages are shown in table 10). The mice were administered by gavage for 7 days. […] Recorded the first time when the writhing response appeared caused by pain for each mouse, the number of the writhing response appeared in 10 minute and the analgesic percent.

The next test deals with threshold of pain. Put plainly: hot-plate test on mouse. It counts as in vivo, NIH female mice. The protocol: Adjusted the temperature of water bath box to 55° C.±1° C. I.C. Immersed one big beaker in the water bath and put mice into the beaker. Recorded the period from the time when animals were put into the beaker to that when animals licked feet due to pain, and defined the period as the threshold of pain of that mouse.
Screened out the mice whose threshold of pain were in the range of 5-30 seconds, and divided them randomly into 5 groups including control group, indometacin-treated group and three Shengmaichenggu capsule-treated groups (The dosage are shown in table 11). Administered medicaments to animals by gavage for continuous 7 days. Determined the threshold of pain at the time of 30 minutes and 60 minutes after the administration at day 7 respectively, and observed the changes in the threshold of pain after administration. Room temperature should be controlled in the range of 15-20° C.

The test system of test [2] is mouse pinnal inflammation caused by dimethylbenzene. Description: mouse pinnal inflammation induced by dimethylbenzene. The class given is in vivo, NIH mice. The settings on record: 0.013 g/kg/day, gavage 7 days. The protocol:
Divided the mice into 5 groups randomly with 8 mice each, i.e. control group, indometacin-treated group and three Shengmaichenggu capsule-treated groups (dosages are shown in table 12). The mice were administered medicaments in different concentration by gavage. […] Killed the mice after […] by decollation. Cut out the equal area at the same position from both ears of the mouse with perforator, and weighted with torsion balance. The swell degree is defined as the weight difference of subtracting the weight of the right ear from that of the left. Analyzed the data of swell degree of the control group and the treated groups statistically.

A further test deals with monocytophagous function. Put plainly: monocytophagous function of mouse (china ink clearance), prednisone acetate immunosuppression. It counts as in vivo, NIH mice. The settings on record: 0.04 g/kg/day, gavage 20 days. The protocol: (§1) The mice were divided into 6 groups randomly, i.e. control group, modeled group, levamisole-treated group, and three Shengmaichenggu capsule-treated groups (dosages are shown in table 14). […] Administered distilled water to the control group by gavage in the same period. At the time of 30 minutes after administering on the day 20, injected […] into tail vein at a dosage of 0.01 ml/l10 g. At the 2th and 12th minute after injection, took 10 μl orbit blood and put into 3 ml 0.1% Na2CO3 solution and shook up. Detected optical density (OD) by colorimetric analysis in 722-grating photometer (λ=620). […] The animals were killed by dislocating cervical vertebra. The liver and spleen were weighted respectively. Determined the weight of immune organs of every mouse according to the immune organ weighting method. Calculated the immune organ index and made a statistical analysis for the result.

For test [3], the system named is immune organs (thymus, spleen). Put plainly: immune organ coefficient of mouse, prednisone acetate immunosuppression. It counts as in vivo, NIH mice. The settings on record: Dosage/kg/day 0.04. Here is the method: as §1
In a further test the test system is serum hemolysin. Put plainly: hemolysin content of mouse immunised by chicken blood cells. The settings on record: 0.04 g/kg/day. It counts as in vivo, NIH mice. The protocol:
The grouping and administering scheme was the same as that of the above-mentioned Experiment of nonspecific immunological functions. At the first day of administration, injected 5% suspension of chicken red blood cells to abdominal cavity of mice at a dosage of 0.2 ml/one mouse. Seven days after immunization, took blood from eyeball and centrifuged. The serum was diluted 100 times with physiological saline. 1 ml of the diluted serum was mixed with 0.5 ml of 5% suspension of chicken red blood cells and 0.5 ml of 10% complement. After incubation in an incubator at 37° C. for 30 minutes, the reaction was terminated by putting the mixture into a 0° C. refrigerator.
The formulated test solution was centrifuged. Took the supernatant and detected optical density (OD) by colorimetric analysis in 722-grating photometer (λ=620). Set up a control group free of serum and took the supernatant of the centrifuged test solution of this group as the “0” basis for colorimetric assay. Took “OD” as the index for quantifying the serum hemolysin and analysed the data statistically.

A further test has as its system mice lymphocyte. Description: cellular immunity test: transformation reaction of mice lymphocyte (PHA). The class given is in vivo, NIH mice. The settings on record: 0.04 g/kg/day. Here is the method:
The mice were divided into 6 groups randomly, i.e. control group, model group levamisole-treated group, and three Shengmaichenggu capsule-treated groups at different dosages (dosages are shown in table 17). Administered by gavage once a day for continuous 7 days. After the last administration, all the animals were immunized by injecting 5% suspension of chicken red blood cells to abdominal cavity at a dosage of 0.2 ml/one mouse. Then the animals were injected PHA to abdominal cavity at a dosage of 0.025 ml/10 g for continuous 3 days. All groups except control group were administered prednisone acetate at a dosage of […] body weight by gavage for continuous 7 days. At the time of 12 hours after last administration, the experiment was carried out according to the Experiment of the content of mouse hemolysin mentioned above in which chicken blood cells were used as immunogen.

A further test relates to tampon-induced granuloma. Put plainly: granuloma induced by tampon on rat. The class given is in vivo, SD rats. The settings on record: 25 mg/kg/day, gavage. Here is the method: The rats were divided into 5 groups randomly with 12 rats each group, i.e. control group, prednisone acetate-treated group and three Shengmaichenggu capsule-treated groups. An incision was made aseptically along the dorsimeson of a rat anesthetized by pentobarbital sodium and a sterilized tampon was imbedded into the incision and sewed up. The treated groups were administered by gavage 3 days before surgery until the day 7 after surgery. At the 8th day after surgery, the rats were killed by decollation. Avulsed out the tampon-caused granuloma tissue and dried it at 60-90° C. in a oven for 1 hour. Then weighted and subtracted the initial weight of tampon to get the net weight of granuloma tissue. Compared the granuloma weight among these groups and analyzed the results statistically.

The subject of another test is acute blood stasis model. Put plainly: hermorheology index of rat acute blood stasis model. The class given is in vivo, SD rats. The settings on record: 90 mg/kg/day, gavage 20 days. Here is the method:
The rats were divided into 6 groups randomly, i.e. normal control group, blood stasis model group, Tetramethylpyrazine phosphate-treated group and three Shengmaichegngu capsule-treated groups (the dosage were shown in table 9). The control group and the blood stasis model group were administered equal volume of distilled water by gavage. Every treated groups were administered liquor drug with different concentrations at a dosage of 2 ml/100 g weight/day, once daily at a fixed time for 20 days. When 24 hours after the last administration, animals except the normal control group were injected epinephrine hydrochloride hypodermically for two times (0.8 mg/kg) with an interval of 3 hours. The rats were immersed in water at 4±1° C. for 5 minutes at the time of 1.5 hour after the first injection of epinephrine hydrochloride, then the animals fast. In the next morning, eyeball blood was taken from anesthetized animals (injected pentobarbital sodium to abdominal cavity at a dosage of 30 mg/kg ). Hermorheology indexes were determined which include specific viscosity of whole blood, specific viscosity of plasma, erythrocyte sedimentation and hematokrit.

Structures are written as SMILES. Marks after values point to notes of the source that are not given here.

Consider `COc1ccc2c(c1)c(CC(=O)O)c(C)n2C(=O)c1ccc(Cl)cc1` [Indometacin, indometacin], for which, in test [1], the Analgesic percent is listed as 75## %, the “Number of writhing mice” value is given as 2## and the “The First time when the writhing response appeared” value was 572.75 ± 182.13 s. Further, in the test with threshold of pain (0.013 g/kg/day, day 7, 30 min), the “Threshold of pain at different time after administration, 30 min” value was found to be 28.07 ± 6.67 S. The “Threshold of pain at different time after administration, 60 min” value in the test on threshold of pain (0.013 g/kg/day, day 7, 60 min) stood at 24.64 ± 6.49 S. For the same molecule, the “Threshold of pain before administration” value with threshold of pain (baseline, group 0.013 g/kg/day) is 18.93 ± 5.41 S. The molecule further had a Swell degree in test [2] of 0.5500 ± 0.258 mg.

On to `c1ccc([C@H]2CN3CCSC3=N2)cc1` [Levamisole, levamisole], for which, in the test on monocytophagous function, the “Phagocytic activity α” value was 5.1964 ± 0.7761 and the “Phagocytic count K” value turned out to be 0.0273 ± 0.00852. Also, in test [3], the “Immune organ coefficient, Spleen” value is recorded as 52.82 ± 0.887 mg/kg and the “Immune organ coefficient, Thymus” value was found to be 1.501 ± 0.334 mg/kg. In addition, the “OD (Optical density), hemolysin content” value in the test with serum hemolysin is reported as 0.7370 ± 0.1444. For the same molecule, in the test with mice lymphocyte, the “Transformation rate of lymphocyte” value was 0.7370 ± 0.03234 %, the limphoblast is 0.4310 ± 0.05043 % and the transition state cells stood at 0.3050 ± 0.0495 %.

On to `CC(=O)OCC(=O)[C@@]1(O)CC[C@H]2[C@@H]3CCC4=CC(=O)C=C[C@]4(C)[C@H]3C(=O)C[C@@]21C` [Prednisone acetate, prednisone acetate], for which the “Net weight of granuloma” value in the test with tampon-induced granuloma is recorded as 33.45 ± 13.10 mg.

Turning to `Cc1nc(C)c(C)nc1C.O=P(O)(O)O` [Tetramethylpyrazine phosphate], in the test with acute blood stasis model, the Erythrocyte sedimentation is listed as 1.80 ± 0.27; the Hematokrit was 43.55 ± 2.39; the “Specific viscosity of plasma” value worked out at 1.95 ± 0.08; the “Specific viscosity of whole blood, High shearviscosity coefficient” value is recorded as 5.59 ± 0.40. For the same molecule, the “Specific viscosity of whole blood, Lower shearviscosity coefficient” value in the test with acute blood stasis model came to 20.87 ± 2.63.
